Laboratory results reported in patent publication US11780851B2, “LRRK2 inhibitors” (H. Lundbeck A/S, priority 2021, dated 2023).
Where two headings read alike, the source gives them in different places.

How the values were obtained:
[1] = Hepatocyte intrinsic clearance assay; format: in vitro ADME, human; conditions: human, pooled donor, cryopreserved hepatocytes, pH 7.4, 0.1 μM, 2 h at 37° C., 1×10^6 hepatocytes/mL; * measured on 3 separate occasions, ** on a single occasion
How it was run: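 Test compound at 0.1 μM final (0.05% organic) incubated 2 h at 37° C with shaking in supplemented Leibovitz L-15 medium (pH7.4), 1×10^6 hepatocytes/mL final. Samples taken 1–120 min, quenched in acetonitrile, analyzed by LC-MS/MS. CLint derived from slope of % remaining versus time.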

[2] = Rat B/P (brain disposition); format: in vivo, male Sprague-Dawley rats; conditions: for concentration at 1 h / Kp at 1 h / Kp uu at 1 h: male, Sprague-Dawley, time point 1.0 h; for Kp at 1 h / Kp uu at 1 h: brain/plasma; for Kp at 1 h: n = 3; for Kp uu at 1 h: po
How it was run: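 Male Sprague-Dawley rats (n=3, standard body weight) were used to assess brain disposition. Plasma and brain homogenates underwent protein precipitation with acetonitrile containing internal standard, then LC-MS/MS measurement using an optimized method. Compound levels were quantified against matrix-matched calibration standards, and brain Kp was calculated as total brain concentration divided by total plasma concentration.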

LRRK2 WT = target: T1, LRRK2 WT (Homo sapiens, UniProt Q5S007); assay: LRRK2 wild-type kinase activity assay (LanthaScreen TR-FRET); format: biochemical; conditions: 1 nM LRRK2 WT, 1.3 mM ATP, 3.5 h at 30° C.; n≥2 tests
T1 construct: comprises residue 970 to 2527 of the full length human wild-type LRRK2 kinase; purchased Invitrogen (Life Technologies Corporation)
How it was run: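 TR-FRET measured phosphorylation of fluorescein-ERM LRRKtide by human LRRK2 residues 970–2527, wild-type or G2019S, detected with a terbium anti-phospho-LRRKtide antibody. The 520/495 nm ratio was normalized to uninhibited and inhibitor controls. IC50 came from a Hill fit, log-averaged over independent experiments.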

T1 sequence (Q5S007 970-2527): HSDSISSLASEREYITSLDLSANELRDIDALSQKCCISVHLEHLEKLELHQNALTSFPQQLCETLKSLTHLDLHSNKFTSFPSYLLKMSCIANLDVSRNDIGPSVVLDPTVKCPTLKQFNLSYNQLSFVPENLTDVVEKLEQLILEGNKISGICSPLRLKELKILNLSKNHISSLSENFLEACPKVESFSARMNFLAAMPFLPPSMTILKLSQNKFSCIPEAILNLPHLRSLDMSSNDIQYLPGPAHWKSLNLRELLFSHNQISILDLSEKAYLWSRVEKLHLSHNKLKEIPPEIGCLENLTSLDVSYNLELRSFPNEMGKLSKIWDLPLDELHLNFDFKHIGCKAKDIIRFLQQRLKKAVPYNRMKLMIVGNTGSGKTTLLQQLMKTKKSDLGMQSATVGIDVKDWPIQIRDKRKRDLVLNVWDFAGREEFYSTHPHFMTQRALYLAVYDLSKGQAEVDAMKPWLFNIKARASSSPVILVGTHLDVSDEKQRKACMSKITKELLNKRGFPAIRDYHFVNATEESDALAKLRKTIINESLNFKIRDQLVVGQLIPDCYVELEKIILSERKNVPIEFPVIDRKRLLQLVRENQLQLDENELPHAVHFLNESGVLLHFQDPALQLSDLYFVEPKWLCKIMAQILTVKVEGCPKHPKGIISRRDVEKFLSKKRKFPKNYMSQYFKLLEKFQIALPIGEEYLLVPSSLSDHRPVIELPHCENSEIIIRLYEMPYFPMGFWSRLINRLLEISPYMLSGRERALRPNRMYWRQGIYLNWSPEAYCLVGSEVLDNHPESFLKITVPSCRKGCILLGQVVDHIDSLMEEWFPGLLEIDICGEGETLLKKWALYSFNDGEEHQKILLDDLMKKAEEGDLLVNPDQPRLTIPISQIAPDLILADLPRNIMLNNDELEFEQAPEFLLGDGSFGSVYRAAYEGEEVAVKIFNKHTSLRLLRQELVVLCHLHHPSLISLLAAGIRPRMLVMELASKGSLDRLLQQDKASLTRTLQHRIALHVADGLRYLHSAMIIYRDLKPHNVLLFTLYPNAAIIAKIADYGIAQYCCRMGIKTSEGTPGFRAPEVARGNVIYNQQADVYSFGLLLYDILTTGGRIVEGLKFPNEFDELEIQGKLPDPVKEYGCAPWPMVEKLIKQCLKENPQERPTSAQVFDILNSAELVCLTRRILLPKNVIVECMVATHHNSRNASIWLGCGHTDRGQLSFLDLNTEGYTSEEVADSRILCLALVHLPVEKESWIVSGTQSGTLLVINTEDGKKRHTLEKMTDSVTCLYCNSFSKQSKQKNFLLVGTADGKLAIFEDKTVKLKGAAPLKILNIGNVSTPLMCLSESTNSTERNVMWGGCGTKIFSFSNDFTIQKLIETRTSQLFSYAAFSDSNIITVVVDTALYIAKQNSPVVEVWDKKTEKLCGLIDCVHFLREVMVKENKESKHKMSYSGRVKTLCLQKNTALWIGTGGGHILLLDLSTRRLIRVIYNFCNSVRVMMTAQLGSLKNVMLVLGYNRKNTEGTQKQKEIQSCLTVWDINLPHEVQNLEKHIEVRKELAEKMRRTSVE

CLint scaled at 0.1 μM [1]: 6 mL/min/kg
extent of brain penetration, classified from rat brain Kp,uu values ([2]; Table 8, brain free fraction from brain slice model): moderately high brain penetrant
concentration at 1 h ([2]; brain, oral gavage 1 mg/kg, Table 8, read-out: Total brain concentration): 130 ± 27 ng/mL
concentration at 1 h ([2]; brain, oral gavage 1 mg/kg, mean ± stdev, n = 3, read-out: Total brain concentration): 130 ± 27 ng/g
concentration at 1 h ([2]; brain, oral gavage 3 mg/kg, Table 8, read-out: Total brain concentration): 597 ± 169 ng/mL
concentration at 1 h ([2]; brain, oral gavage 3 mg/kg, mean ± stdev, n = 3, read-out: Total brain concentration): 597 ± 169 ng/g
concentration at 1 h ([2]; brain, oral gavage 10 mg/kg, Table 8, read-out: Total brain concentration): 2030 ± 462 ng/mL
concentration at 1 h ([2]; brain, oral gavage 10 mg/kg, mean ± stdev, n = 3, read-out: Total brain concentration): 2030 ± 462 ng/g
Kp at 1 h ([2]; oral gavage 1 mg/kg, mean ± stdev): 1.76 ± 0.04
Kp at 1 h ([2]; oral gavage 3 mg/kg, mean ± stdev): 1.74 ± 0.1
Kp at 1 h ([2]; oral gavage 10 mg/kg, mean ± stdev): 1.3 ± 0.22
Kp uu at 1 h ([2]; 1 mg/kg, oral gavage 1 mg/kg, brain free fraction from rat brain slice model): 0.54 ± 0.01
Kp uu at 1 h ([2]; 1 mg/kg, oral gavage 1 mg/kg, fubrain from brain homogenate): 0.38 ± 0.01
Kp uu at 1 h ([2]; 3 mg/kg, oral gavage 3 mg/kg, brain free fraction from rat brain slice model): 0.54 ± 0.03
Kp uu at 1 h ([2]; 3 mg/kg, oral gavage 3 mg/kg, fubrain from brain homogenate): 0.38 ± 0.02
Kp uu at 1 h ([2]; 10 mg/kg, oral gavage 10 mg/kg, brain free fraction from rat brain slice model): 0.4 ± 0.07
Kp uu at 1 h ([2]; 10 mg/kg, oral gavage 10 mg/kg, fubrain from brain homogenate): 0.28 ± 0.05
concentration at 1 h ([2]; plasma, oral gavage 1 mg/kg, mean ± stdev, n = 3, read-out: Total plasma concentration): 74 ± 17 ng/mL
concentration at 1 h ([2]; plasma, oral gavage 3 mg/kg, mean ± stdev, n = 3, read-out: Total plasma concentration): 340 ± 78 ng/mL
concentration at 1 h ([2]; plasma, oral gavage 10 mg/kg, mean ± stdev, n = 3, read-out: Total plasma concentration): 1640 ± 655 ng/mL
IC50 (LRRK2 WT): 9.6 nM
SMILES: [2H]C([2H])([2H])c1c2c(nn1C1CCOCC1)OCCCn1nc(Cl)c3cnc(nc31)N2 [Example 13, 8-Chloro-3-(methyl-d3)-2-(tetrahydro-2H-pyran-4-yl)-2,4,12,13-tetrahydro-11H-5,7-(azenometheno)dipyrazolo[3,4-b:5′,1′-g][1]oxa[4,6,8]triazacycloundecine]
